Measurements published in patent publication US11053204B2, “Pyrimidinyloxy benzene derivatives as herbicides” (FMC Corporation, priority 2015, dated 2021).

Columns and labels:
Format in all cases: in vivo
[1] = test system: nightshade (eastern black nightshade, Solanum ptycanthum); experiment: Test C preemergence, plant response rating
[2] = test system: wild poinsettia (Euphorbia heterophylla); experiment: Test C preemergence, plant response rating
[3] = test system: nightshade (eastern black nightshade, Solanum ptycanthum); experiment: Test C postemergence, plant response rating; conditions: for Nightshade plant response rating: scale 0 to 100 (0 no effect, 100 complete control)
In short: (§1)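 Preemergence: seeds sown in loam–sand blend or silt loam and sprayed with test chemicals in a non-phytotoxic surfactant-containing solvent. Postemergence: potted plants at 2–18 cm (1–4-leaf stage) sprayed with the same formulation. After 13–15 d in greenhouse, visual rating versus controls on 0 (no effect) to 100 (complete control) scale.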

[4] = test system: Canada thistle (Cirsium arvense); experiment: Test C postemergence, plant response rating; conditions: for Canada Thistle plant response rating: scale 0 to 100 (0 no effect, 100 complete control)
In short: as §1

[5] = test system: wild poinsettia (Euphorbia heterophylla); experiment: Test C postemergence, plant response rating; conditions: for Poinsettia, Wild plant response rating: scale 0 to 100 (0 no effect, 100 complete control)
In short: as §1

[6] = test system: windgrass (Apera spica-venti); experiment: Test C postemergence, plant response rating
In short: as §1

[7] = test system: buckwheat, wild (wild buckwheat, Polygonum convolvulus); experiment: Test C postemergence, plant response rating; conditions: for Buckwheat, Wild plant response rating: scale 0 to 100 (0 no effect, 100 complete control)
In short: as §1

[8] = test system: speedwell (bird's-eye speedwell, Veronica persica); experiment: Test C postemergence, plant response rating; conditions: for Speedwell plant response rating: scale 0 to 100 (0 no effect, 100 complete control)
In short: as §1

[9] = test system: pigweed, palmer (palmer pigweed, Amaranthus palmeri); experiment: Test C postemergence, plant response rating; conditions: for Pigweed, Palmer plant response rating: scale 0 to 100 (0 no effect, 100 complete control)
In short: as §1

[10] = test system: wild mustard (Sinapis arvensis); experiment: Test C postemergence, plant response rating; conditions: for Mustard, Wild plant response rating: scale 0 to 100 (0 no effect, 100 complete control)
In short: as §1

[11] = test system: surinam grass (Brachiaria decumbens); experiment: Test C postemergence, plant response rating
In short: as §1

[12] = test system: field poppy (Papaver rhoeas); experiment: Test C postemergence, plant response rating; conditions: for Field Poppy plant response rating: scale 0 to 100 (0 no effect, 100 complete control)
In short: as §1

[13] = test system: johnsongrass (Sorghum halepense); experiment: Test C postemergence, plant response rating; conditions: for Johnsongrass plant response rating: scale 0 to 100 (0 no effect, 100 complete control)
In short: as §1

[14] = test system: geranium, cutleaf (cutleaf geranium, Geranium dissectum); experiment: Test C postemergence, plant response rating; conditions: for Geranium, Cutleaf plant response rating: scale 0 to 100 (0 no effect, 100 complete control)
In short: as §1

[15] = test system: field violet (Viola arvensis); experiment: Test C postemergence, plant response rating; conditions: for Field Violet plant response rating: scale 0 to 100 (0 no effect, 100 complete control)
In short: as §1

[16] = test system: windgrass (Apera spica-venti); experiment: Test C preemergence, plant response rating
[17] = test system: johnsongrass (Sorghum halepense); experiment: Test C preemergence, plant response rating
[18] = test system: barnyardgrass (Echinochloa crus-galli); experiment: Test C preemergence, plant response rating; conditions: Preemergence
[19] = test system: pigweed, palmer (palmer pigweed, Amaranthus palmeri); experiment: Test C preemergence, plant response rating
[20] = 125 g ai/ha, scale 0 to 100 (0 no effect, 100 complete control)

N#CC(CCCC(F)(F)F)c1ccccc1Oc1ncc(Cl)cn1 (stereo not drawn) [Compound 144]
50: Poinsettia, Wild plant response rating ([5]; 62 g ai/ha)
75: Plant response rating, Nightshade ([3]; 31 g ai/ha, scale 0 to 100) | Nightshade plant response rating ([3]; 62 g ai/ha)
25: Plant response rating, Pigweed, Palmer ([9]; 16 g ai/ha, scale of 0 to 100) | Surinam Grass plant response rating [11, 20]
60: Plant response rating, Canada Thistle ([4]; 31 g ai/ha, scale 0 to 100) | Poinsettia, Wild plant response rating ([5]; 125 g ai/ha) | Plant response rating, Speedwell ([8]; 16 g ai/ha, scale of 0 to 100) | Plant response rating, Field Poppy ([12]; 16 g ai/ha, scale of 0 to 100) | Plant response rating, Field Violet ([15]; 16 g ai/ha, scale of 0 to 100)
90: Plant response rating, Nightshade ([1]; 62 g ai/ha, scale 0 to 100) | Nightshade plant response rating ([3]; 125 g ai/ha) | Plant response rating, Canada Thistle ([4]; 16 g ai/ha, scale of 0 to 100) | Canada Thistle plant response rating ([4]; 62 g ai/ha) | Canada Thistle plant response rating ([4]; 125 g ai/ha) | Field Poppy plant response rating ([12]; 62 g ai/ha) | Field Violet plant response rating ([15]; 125 g ai/ha) | Plant response rating, Windgrass ([16]; 125 g ai/ha, scale of 0 to 100)
5: Plant response rating, Poinsettia, Wild ([2]; 31 g ai/ha, scale 0 to 100) | Plant response rating, Johnsongrass ([13]; 16 g ai/ha, scale of 0 to 100) | Plant response rating, Johnsongrass ([13]; 31 g ai/ha, scale 0 to 100) | Johnsongrass plant response rating ([13]; 62 g ai/ha) | Johnsongrass plant response rating ([13]; 125 g ai/ha)
35: Plant response rating, Poinsettia, Wild ([5]; 31 g ai/ha, scale 0 to 100) | Plant response rating, Pigweed, Palmer ([9]; 31 g ai/ha, scale 0 to 100) | Geranium, Cutleaf plant response rating ([14]; 62 g ai/ha)
30: Plant response rating, Poinsettia, Wild ([5]; 16 g ai/ha, scale of 0 to 100) | Windgrass plant response rating [6, 20] | Plant response rating, Windgrass ([16]; 31 g ai/ha, scale 0 to 100)
95: Buckwheat, Wild plant response rating ([7]; 125 g ai/ha) | Speedwell plant response rating ([8]; 62 g ai/ha) | Speedwell plant response rating ([8]; 125 g ai/ha) | Mustard, Wild plant response rating ([10]; 125 g ai/ha) | Plant response rating, Barnyardgrass ([18]; 125 g ai/ha, scale of 0 to 100)
40: Plant response rating, Poinsettia, Wild ([2]; 62 g ai/ha, scale 0 to 100) | Pigweed, Palmer plant response rating ([9]; 62 g ai/ha) | Geranium, Cutleaf plant response rating ([14]; 125 g ai/ha) | Plant response rating, Johnsongrass ([17]; 62 g ai/ha, scale 0 to 100) | Plant response rating, Barnyardgrass ([18]; 31 g ai/ha, scale 0 to 100)
20: Plant response rating, Surinam Grass ([11]; 31 g ai/ha, scale 0 to 100) | Plant response rating, Geranium, Cutleaf ([14]; 31 g ai/ha, scale 0 to 100)
55: Plant response rating, Buckwheat, Wild ([7]; 31 g ai/ha, scale 0 to 100)
80: Plant response rating, Poinsettia, Wild ([2]; 125 g ai/ha, scale of 0 to 100) | Buckwheat, Wild plant response rating ([7]; 62 g ai/ha) | Pigweed, Palmer plant response rating ([9]; 125 g ai/ha) | Mustard, Wild plant response rating ([10]; 62 g ai/ha) | Plant response rating, Field Poppy ([12]; 31 g ai/ha, scale 0 to 100) | Field Violet plant response rating ([15]; 62 g ai/ha) | Plant response rating, Windgrass ([16]; 62 g ai/ha, scale 0 to 100)
70: Plant response rating, Buckwheat, Wild ([7]; 16 g ai/ha, scale of 0 to 100) | Plant response rating, Speedwell ([8]; 31 g ai/ha, scale 0 to 100) | Plant response rating, Mustard, Wild ([10]; 16 g ai/ha, scale of 0 to 100) | Plant response rating, Mustard, Wild ([10]; 31 g ai/ha, scale 0 to 100) | Plant response rating, Johnsongrass ([17]; 125 g ai/ha, scale of 0 to 100) | Plant response rating, Barnyardgrass ([18]; 62 g ai/ha, scale 0 to 100)
100: Plant response rating, Nightshade ([1]; 125 g ai/ha, scale of 0 to 100) | Field Poppy plant response rating ([12]; 125 g ai/ha) | Plant response rating, Pigweed, Palmer ([19]; 31 g ai/ha, scale 0 to 100) | Plant response rating, Pigweed, Palmer ([19]; 62 g ai/ha, scale 0 to 100) | Plant response rating, Pigweed, Palmer ([19]; 125 g ai/ha, scale of 0 to 100)
65: Plant response rating, Nightshade ([1]; 31 g ai/ha, scale 0 to 100) | Plant response rating, Nightshade ([3]; 16 g ai/ha, scale of 0 to 100) | Plant response rating, Field Violet ([15]; 31 g ai/ha, scale 0 to 100)
10: Plant response rating, Windgrass ([6]; 16 g ai/ha, scale of 0 to 100) | Plant response rating, Windgrass ([6]; 31 g ai/ha, scale 0 to 100) | Plant response rating, Surinam Grass ([11]; 16 g ai/ha, scale of 0 to 100) | Plant response rating, Johnsongrass ([17]; 31 g ai/ha, scale 0 to 100) | Plant response rating, Barnyardgrass ([18]; 16 g ai/ha, scale 0 to 100)
15: Plant response rating, Geranium, Cutleaf ([14]; 16 g ai/ha, scale of 0 to 100)
